The values below come from US20240269157A1, “COMPOSITIONS AND METHODS FOR OVERCOMING MICROENVIRONMENT-MEDIATED RESISTANCE VIA E-SELECTIN TARGETING” (GLYCOMIMETICS, INC., priority 2021, published 2024).

The structures appear in SMILES notation.

Assay [1] has as its system PDX-AML (Ven/HMA-resistant). The assay can be described thus: PDX-AML (Ven/HMA-resistant) model, FLT3-ITD, NRAS, GATA2 mutations. It is filed as in vivo, NSG mice. An excerpt: To evaluate the efficacy of targeting E-selectin with Compound A to selectively eradicate leukemia cells resistant to venetoclax/HMA therapy in the bone marrow niche, an […] PDX-AML model derived from an AML patient harboring FLT3-ITD, NRAS, and GATA2 mutations who initially responded to venetoclax/HMA therapy and then relapsed was employed (FIG. 1). The model reflects the present situation for many elderly AML patients: initial sensitivity, followed by resistance to venetoclax/HMA and relapse.
Patient-derived PDX cells from an AML patient (2.5×10^6 cells/mouse) were transplanted via tail vein into NSG mice. Once AML cells began to engraft, mice were divided into four groups: vehicle treatment only; 40 mg/kg of Compound A; 50 mg/kg venetoclax+5.5 mg/kg 5-azacitidine; and a combination of 40 mg/kg Compound A and 50 mg/kg venetoclax+5.5 mg/kg 5-azacitidine. Drug treatment was performed from day 60 to day 82 post-transplantation.
Leukemia progression and tumor burden were evaluated weekly during the treatment period (for 22 days) by determining the frequency and absolute number of human CD45^+ cells in peripheral blood using flow cytometry analysis. The synergistic effects of the combinatorial treatment on AML-PDX mouse survival were determined by Kaplan-Meier analysis (FIG. 2). […] The median survival of the vehicle control, Compound A, venetoclax/HMA, and combination-treated (Compound A+venetoclax/HMA) groups of mice was 86, 91, 81.5, and 106.5 days, respectively.
At the time when all of the control group of mice were moribund (after 23 days of treatment), 3 mice per group were sacrificed for single cell proteomics (CyTOF) and immunohistochemistry analysis.

The next assay relates to HUVEC co-cultured AML. The assay can be described thus: Cell cycle regulating protein expression in HUVEC co-cultured AML. It is filed as cell-based, human.
Assay [2] has as its system patient-derived primary AML xenograft (JAK2 and c-Kit). The assay is described as follows: PDX model (mutations in JAK2 and c-Kit), LSC retention and CyTOF of BM cells. It is filed as in vivo, mice. From the text: Intra-vital imaging was employed to investigate the effects of Compound B on AML cell motility in the bone marrow of triple reporter mice (Blood: dextran-TRITC; Host T-cells: DsRed; Host myeloid CD11 cells: EYFP) injected with AML cells carrying a turquoise fluorescent protein reporter gene. […] Individual cells were dislodged from the niche and traveled long-distance (FIG. 17C). The combined inhibition of E-selectin and CXCR4 depleted bone marrow vascular niche areas of leukemia cells.
In order to better understand how the augmented AML mobilization improves the efficacy of AML therapy, BM cells from PDX mice treated for 2 weeks with Compound A, Compound B, venetoclax/HMA (Ven/HMA), and their combinations were analyzed by single-cell proteomics (CyTOF). […] However, pharmacological antagonists of E-selectin (Compound A) or E-selectin/CXCR4 (Compound B) protected endothelial cells from Ven/HMA-induced detrimental insults through upregulation of survival signaling cascades, including pAKT, pERK, pMAPK and […] eNOS expression in endothelial cells compared to Ven/HMA treatment alone.

The test system of the next assay is human MSC. The assay can be described thus: CD44 surface expression in MSC exposed to soluble E-selectin. It is filed as cell-based. The following applies: MSC in vitro. An excerpt:
To determine if E-selectin has indispensable effects in bone marrow niche component cells, healthy donor derived-mesenchymal stroma cells (MSC) were exposed to increasing concentrations of E-selectin. […] Abrogation of E-selectin binding by Compound A diminished CD44 expression in vitro.

The subject of another assay is KG1 cells. The assay is described as follows: Flow cytometry of E-selectin-PE and HECA-452-FITC reactivity with KG1 cells. It is filed as cell-based, human. The settings on record: 100 nM 5-AZA. On the procedure:
The increased adhesion of KG1 cells to E-selectin following treatment with 5-AZA was further examined by flow cytometry. Cells were cultured for 96 hours in the presence or absence of 100 nM 5-AZA. The binding of E-selectin-PE (E-selectin-Fc chimera conjugated with R-phycoerythrin) to the cells was determined by flow cytometry. In addition, the reactivity of the cells with HECA-452 monoclonal antibody, which specifically reacts with sialyl Lewis A/X carbohydrate structures and is a surrogate marker of E-selectin ligand, was determined by flow cytometry.
Specifically, KG1 cells were centrifuged at 250×g for 10 minutes, washed with HBSS containing 0.1% bovine serum albumin (HBSS/BSA), and resuspended in HBSS/BSA to approximately 3×10^6 cells per mL. The cells were treated with Fc receptor blocker (Miltenyi Biotech) and 100 μL aliquots (3×10^5 cells) were added to 12×75 mm Falcon polypropylene tubes. Cells were treated with either 5 μL E-selectin-Fc-PE reagent or 20 μL HECA-452-FITC antibody, placed at 4° C. for 45 minutes, washed with 2 mL then again with 1 mL HBSS/BSA. Final cell pellets were resuspended in 500 μl HBSS/BSA and analyzed on an Attune N×T flow cytometer. E-selectin was conjugated with R-phycoerythrin using the PE/R-phycoerythrin conjugation kit—Lightning-Link (Abcam ab102918).

Where [3] appears, read: in combination with Ven/HMA, 2 weeks, CyTOF of BM cells.

Take `CCC1CC(C(=O)NCCNC(=O)CCOCCOCCOCCOCCOCCOCCOCCOCCOCCOCCOCCOC)C[C@@H](O[C@@H]2OC(CO)[C@H](O)C(O[C@@H](CC3CCCCC3)C(=O)O)C2NC(C)=O)[C@@H]1OC1O[C@@H](C)[C@H](O)C(O)[C@@H]1O` (some centres unmarked) [Compound A]: the median survival in assay [1] (40 mg/kg Compound A, 50 mg/kg venetoclax+5.5 mg/kg 5-azacitidine, day 60 to 82) was 91 days. Besides, the “anti-leukemia efficacy of venetoclax/HMA” value in assay [1] (CyTOF, in vivo administration) is reported as “enhanced”. In assay [1] (histology, Compound A only compared to normal control mice), the “leukemia cell infiltration in bone marrow, spleen, lung, and liver” value is “increased”. Further, the “mobilization of human AML cells” value in assay [1] (mouse, in vivo) is “mobilized”. Besides, the “expression of cell cycle regulating proteins including CDK4, CDK6, CyclinD1, and CyclinD2” value in the assay with HUVEC co-cultured AML was “increased”. In assay [2] (setting [3]), the “levels of E-selectin ligand, mTOR, pFAK, pRb, cMyc” value is “diminished”; the “p21 and cleaved caspase3” value is recorded as “increasing”. Besides, in assay [2] (upregulated pAKT, pERK, pMAPK, decreased eNOS vs Ven/HMA alone), the “protection of endothelial cells from Ven/HMA-induced detrimental insults” value is reported as “protected”. In the assay with human MSC, the CD44 expression entry is “diminished”.

Consider `Nc1ncn([C@@H]2O[C@H](CO)[C@@H](O)[C@H]2O)c(=O)n1` [5-azacitidine], for which, in the assay with KG1 cells (96 hours), the “increase in MFI, HECA-452” value was found to be 26%; the “increase in median fluorescence intensity, E-selectin-PE” value worked out at 38%; the “increase in the percentage of cells reactive with E-selectin-PE” value was found to be 38%; the “increase in the percentage of cells reactive with HECA-452” value is listed as 27%. The “percentage of cells reactive with HECA-452” value in the assay on KG1 cells (96 hours (untreated 37.8%)) came out at 47.9%. Besides, the “percentage of cells reactive with E-selectin-PE” value in the assay with KG1 cells (96 hours (untreated 38.4%)) is given as 52.9%. Further, the “MFI, HECA-452” value in the assay on KG1 cells (96 hours (untreated 621)) came out at 783. In addition, the “median fluorescence intensity (MFI), E-selectin-PE” value with KG1 cells (96 hours (untreated 940)) is 1299.
